Measured values published in article PMC6813166 (CPT: Pharmacometrics & Systems Pharmacology, 2019).

Experiments:
[1] = Simulation of upper and lower clinical bounds of exposure; set-up: species or system human
[2] = 625 mg q6h for 7 days, healthy adult volunteers; cited from earlier work
Population PK analysis = assay type: in vivo, human; settings: for V1, final model estimate (RSE%): apparent volume of the central compartment; for V2, final model estimate (RSE%): apparent volume of the peripheral compartment; for BSV in V1, final model CV% (shrink) / BSV in V2, final model CV% (shrink): between-subject variability; for Q, final model estimate (RSE%): intercompartmental clearance; for CL, final model estimate (RSE%): population PK, healthy volunteers and patients, i.v. infusion; for Covariate on CL: CrCL (power), final model estimate (RSE%): power relationship centered on the median; for Proportional Error, final model CV% (shrink): residual variability
[3] = system: Pseudomonas aeruginosa and Enterobacteriaceae; settings: HF model; cited from earlier work
[4] = imipenem monotherapy, in vivo animal models; cited from earlier work
[5] = patients; cited from earlier work

SMILES: O=C(NC1CCNCC1)[C@@H]1CC[C@@H]2CN1C(=O)N2OS(=O)(=O)O [relebactam]
- AUC0-24 hours target [1]: 76.9 µM·h
- safety and tolerability [2]: safe and well tolerated
- V1, final model estimate (RSE%) (Population PK analysis): 11.08 (2.9) L
- V2, final model estimate (RSE%) (Population PK analysis): 6.41 (3.8) L
- BSV in V1, final model CV% (shrink) (Population PK analysis): 59.5 (18.8) CV%
- BSV in V2, final model CV% (shrink) (Population PK analysis): 41.1 (49.8) CV%
- Covariate on V1: WT (power), final model estimate (RSE%) (Population PK analysis; body weight): 0.70 (15.8)
- BSV in V1, bootstrap CV% (Population PK analysis; bootstrap n = 1,000): 59.4 CV%
- BSV in V2, bootstrap CV% (Population PK analysis; bootstrap n = 1,000): 41.0 CV%
- CL, bootstrap estimate (RSE%) (Population PK analysis; bootstrap n = 1,000): 7.02 (2.0) L/hour
- Covariate on CL: CrCL (power), bootstrap estimate (RSE%) (Population PK analysis; bootstrap n = 1,000): 0.75 (8.3)
- Covariate on V1: WT (power), bootstrap estimate (RSE%) (Population PK analysis; bootstrap n = 1,000): 0.72 (17.9)
- Proportional Error, bootstrap CV% (Population PK analysis; bootstrap n = 1,000): 15.3 CV%
- Q, bootstrap estimate (RSE%) (Population PK analysis; bootstrap n = 1,000): 10.48 (7.0) L/hour
- V1, bootstrap estimate (RSE%) (Population PK analysis; bootstrap n = 1,000): 11.06 (2.9) L
- V2, bootstrap estimate (RSE%) (Population PK analysis; bootstrap n = 1,000): 6.43 (3.6) L
- Q, final model estimate (RSE%) (Population PK analysis): 10.45 (6.8) L/hour
- CL, final model estimate (RSE%) (Population PK analysis): 7.02 (2.0) L/hour
- Covariate on CL: CrCL (power), final model estimate (RSE%) (Population PK analysis): 0.75 (8.3)
- Proportional Error, final model CV% (shrink) (Population PK analysis): 15.3 (14.1) CV%
- fAUC0-24 hours/MIC required to achieve 2-log kill [3]: ≥ 7.5

SMILES: C[C@@H](O)[C@H]1C(=O)N2C(C(=O)O)=C(SCCN=CN)C[C@H]12 [imipenem]
- fT > MIC required to achieve 1-log kill to 2-log kill [4]: ~ 30%
- concentration lower in peritoneal fluid than in plasma, on average [5]: 25%
- V1, final model estimate (RSE%) (Population PK analysis): 15.83 (3.2) L
- V2, final model estimate (RSE%) (Population PK analysis): 5.84 (4.0) L
- BSV in V1, final model CV% (shrink) (Population PK analysis): 74.4 (7.4) CV%
- BSV in V2, final model CV% (shrink) (Population PK analysis): 35.0 (52.9) CV%
- Covariate on CL: WT (power), final model estimate (RSE%) (Population PK analysis; body weight): 0.33 (30.5)
- Covariate on V1: WT (power), final model estimate (RSE%) (Population PK analysis; body weight): 0.74 (19.1)
- BSV in V1, bootstrap CV% (Population PK analysis; bootstrap n = 1,000): 74.2 CV%
- BSV in V2, bootstrap CV% (Population PK analysis; bootstrap n = 1,000): 34.8 CV%
- CL, bootstrap estimate (RSE%) (Population PK analysis; bootstrap n = 1,000): 12.53 (2.0) L/hour
- Covariate on CL: CrCL (power), bootstrap estimate (RSE%) (Population PK analysis; bootstrap n = 1,000): 0.46 (8.0)
- Covariate on CL: WT (power), bootstrap estimate (RSE%) (Population PK analysis; bootstrap n = 1,000): 0.34 (32.2)
- Covariate on V1: Healthy, bootstrap estimate (RSE%) (Population PK analysis; bootstrap n = 1,000): −0.28 (10.0)
- Covariate on V1: WT (power), bootstrap estimate (RSE%) (Population PK analysis; bootstrap n = 1,000): 0.76 (21.6)
- Proportional Error, bootstrap CV% (Population PK analysis; bootstrap n = 1,000): 16.1 CV%
- Q, bootstrap estimate (RSE%) (Population PK analysis; bootstrap n = 1,000): 11.15 (6.7) L/hour
- V1, bootstrap estimate (RSE%) (Population PK analysis; bootstrap n = 1,000): 15.76 (3.4) L
- V2, bootstrap estimate (RSE%) (Population PK analysis; bootstrap n = 1,000): 5.86 (3.9) L
- Q, final model estimate (RSE%) (Population PK analysis): 11.09 (6.5) L/hour
- CL, final model estimate (RSE%) (Population PK analysis): 12.53 (2.0) L/hour
- Covariate on CL: CrCL (power), final model estimate (RSE%) (Population PK analysis): 0.46 (8.1)
- Covariate on V1: Healthy, final model estimate (RSE%) (Population PK analysis; proportional change, healthy volunteers vs patients): −0.29 (9.5)
- Proportional Error, final model CV% (shrink) (Population PK analysis): 16.1 (19.0) CV%
